Target: T1, human oxytocin receptor (Homo sapiens, UniProt P30559)
T1 construct: host or cells: CHO cells, stably transfected (pcDNA3.1 vector)
T1 sequence (P30559 1-389): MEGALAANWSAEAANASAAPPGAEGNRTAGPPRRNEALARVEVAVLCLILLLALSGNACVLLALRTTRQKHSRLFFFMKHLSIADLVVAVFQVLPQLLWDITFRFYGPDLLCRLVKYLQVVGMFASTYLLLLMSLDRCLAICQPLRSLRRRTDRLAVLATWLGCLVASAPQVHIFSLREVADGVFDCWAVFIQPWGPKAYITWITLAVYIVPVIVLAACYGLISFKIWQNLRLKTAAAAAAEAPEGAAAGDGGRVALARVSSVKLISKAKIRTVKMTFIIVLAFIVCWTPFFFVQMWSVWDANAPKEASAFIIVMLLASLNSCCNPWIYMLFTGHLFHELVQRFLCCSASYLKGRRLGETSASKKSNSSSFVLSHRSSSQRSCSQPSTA
Assay: Oxytocin binding in CHO cell membranes expressing human oxytocin receptors ([3H]oxytocin radioligand binding)
Details: 100 nM, read-out: OT % inhibition @ 100 nM
Outline: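 Values are % inhibition at one concentration or nM IC50 from [3H]oxytocin displacement. Membranes from human oxytocin receptor CHO cells, 25–50 μg protein/well, 60 min at room temperature, pH 7.4 Tris buffer with protease inhibitors; bound label by filtration and scintillation counting.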

Row | inhibition at 0.1 µM | Structure (SMILES)
1 | 42% | COc1cc(-c2ccccc2C)c(Cl)cc1C(=O)N1Cc2ccc(C(=O)NCc3ccccn3)n2Cc2ccccc21 [Example 29, 10-[(6-Chloro-3-methoxy-2′-methyl-[1,1′-biphenyl]-4-yl)carbonyl]-N-(2-pyridinylmethyl)-10,11-dihydro-5H-pyrrolo[2,1-c][1,4]benzodiazepine-3-carboxamide]
2 | 11% | O=C(NCCc1ccccn1)c1ccc2n1Cc1ccccc1N(C(=O)c1ccc(-c3cccc4ccccc34)cc1Cl)C2 [Example 60, 10-[2-Chloro-4-(naphthalen-1-yl)benzoyl]-N-[2-(2-pyridinyl)ethyl]-10,11-dihydro-5H-pyrrolo[2,1-c][1,4]benzodiazepine-3-carboxamide]
3 | 35% | COc1ccccc1-c1ccc(C(=O)N2Cc3ccc(C(=O)NCc4cccnc4)n3Cc3ccccc32)cc1 [Example 39, 10-[(2′-Methoxy-[1,1′-biphenyl]-4-yl)carbonyl]-N-(3-pyridinylmethyl)-10,11-dihydro-5H-pyrrolo[2,1-c][1,4]benzodiazepine-3-carboxamide]
4 | 50% | COc1ccccc1-c1ccc(C(=O)N2Cc3ccc(C(=O)NCc4ccccn4)n3Cc3ccccc32)cc1C [Example 24, 10-[(2′-Methoxy-2-methyl-[1,1′-biphenyl]-4-yl)carbonyl]-N-(2-pyridinylmethyl)-10,11-dihydro-5H-pyrrolo[2,1-c][1,4]benzodiazepine-3-carboxamide]
5 | 26% | COc1cccc(-c2ccc(C(=O)N3Cc4ccc(C(=O)NCc5cccnc5)n4Cc4ccccc43)cc2C)c1 [Example 38, 10-[(3′-Methoxy-2-methyl-[1,1′-biphenyl]-4-yl)carbonyl]-N-(3-pyridinylmethyl)-10,11-dihydro-5H-pyrrolo[2,1-c][1,4]benzodiazepine-3-carboxamide]

From patent US7064120B2, “Tricyclic pyridyl carboxamides and derivatives thereof tocolytic oxytocin receptor antagonists” (Wyeth, priority 2001, dated 2006)
